Experimental data reported in patent US8143282B2, “Heterocyclic compounds” (S*BIO Pte Ltd., priority 2005, dated 2012).
pIC50: −log10 of the molar value.

How the values were obtained:
PC3 = test: Cell-based proliferation assay for GI50 (CyQUANT), PC3; settings: Homo sapiens, PC-3; PC3, 96 h treatment; read-out: Cellular or Growth Inhibition Activity, GI50, PC3
Procedure: (§1) Human colon cancer cell lines (Colo205, HCT116), Ovarian cancer cell line (A2780), Hepatoma cell line (HEP3B), Prostate cancer cell line (PC3) were obtained from ATCC or ECACC. Colo205 cells were cultivated in RPMI 1640 containing 2 mM L-Glutamine, 5% FBS, 1.0 mM Na Pyruvate, 1 U/ml of penicillin and 1 μg of streptomycin. HCT116 cells were cultivated in McCoy's containing RPMI 1640 containing 2 mM L-Glutamine, 5% FBS, 1 U/ml of penicillin and 1 μg of streptomycin. A2780 cells were cultivated in RPMI 1640 containing 2 mM L-Glutamine, 5% FBS, 1 U/ml of penicillin and 1 μg of streptomycin. HEP3B cells were cultivated in EMEM containing 2 mM L-glutamine, 5% FBS, 1% non essential amino acid, 1 mM Na Pyruvate, 1 U/ml of penicillin and 1 μg of streptomycin. PC3 cells were cultivated in F12K, 2 mM L-glutamine, 5% FBS, 1 U/ml of penicillin and 1 μg of streptomycin. PC3, Colo205, and HCT116 cells were seeded in 96-wells plate at 1000, 5000 and 6000 cells per well respectively. A2780 and HEP3B cells were seeded in 96-wells plate at 4000 cells per well respectively. The plates were incubated at 37° C., 5% CO2, for 24 h. Cells were treated with compounds at various concentrations for 96 h. Cell growth was then monitored using CyQUANT® cell proliferation assay (Invitrogen Pte Ltd). Dose response curves were plotted to determine GI50 values for the compounds using XL-fit (ID Business Solution, Emeryville, Calif.). GI50 is defined as the concentration of compound required for 50% inhibition of cell growth.

HDAC1 enzyme = target: T1, HDAC1 enzyme (Homo sapiens, UniProt Q13547); test: In vitro HDAC assay for determination of IC50 values (BIOMOL fluorescent-based HDAC activity assay); assay type: biochemical
T1 construct: Amplification of human HDAC1 coding region from this cDNA library was cloned separately into the baculovirus expression pDEST20 vector; made in house; host or cells: SF9 insect cells, pDEST20-HDAC1 baculovirus
Outline: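 Recombinant GST-HDAC1, cloned from SW620 cDNA and expressed in Sf9 cells, tested in a fluorogenic Fluor de Lys deacetylase assay. Developer was added for 10 min and fluorescence read at 360/460 nm. IC50 came from concentration series.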

[1] = Measurement of microsomal stability; assay type: in vitro ADME; settings: pooled human liver microsomes, pH 7.4; human liver microsome, 5 μM test compound, 1.0 mg/ml microsomal protein
Procedure: Metabolic stability measurements in the in vitro using liver microsomes aids in the prediction of the in vivo hepatic clearance and the compound stability towards phase I biotransformation reactions mediated by P450 isozymes.
Pooled human liver microsome (HLM was purchased from BD Gentest (BD BioSciences). The incubations consisted of test compound (5 μM) or control compound (Verapamil), NADPH-generating system solution A (25 mM NADP^+, 66 mM glucose-6-phosphate, 66 mM MgCl2 in H2O), NADPH-generating system solution B (40 U/ml glucose-6-phosphate dehydrogenase in 5 mM sodium citrate) and 1.0 mg/ml microsomal protein, respectively, in 100 mM potassium phosphate buffer (pH 7.4). Samples were incubated for 0, 5, 15, 30, 45, 60 min. Reaction was terminated with ice-cold 80% acetonitrile and 20% DMSO. Samples were subsequently centrifuged at 4° C. for 15 min at 2,000 rpm. 100 μL of the supernatant was transferred to the LC-MS Plate for analysis. Before quantitative analysis, the compound was tuned in LC/MS machine to get the optimized MS condition. Liquid chromatography was performed on a Luna C18 column (Phenomenex U.S.A, Torrance, Calif.) (2×50 mm, 5 μM). % of the compound remaining (by area) at each time point is calculated with respect to time 0 min. Plot % remaining against time (min) to obtain the curve and use the Prism software to obtain the t1/2.

HEP3B = test: Cell-based proliferation assay for GI50 (CyQUANT), HEP3B; settings: Homo sapiens, 96 h treatment, read-out: Cellular or Growth Inhibition Activity, GI50, HEP3B
Procedure: as §1

Colo205 cells = test: Cell-based proliferation assay for GI50 (CyQUANT), Colo205; settings: Homo sapiens, COLO 205, 96 h treatment, read-out: Cellular or Growth Inhibition Activity in Colo205 cells, GI50
Outline: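 Cells were seeded at 1000 (PC3), 5000 (Colo205), 6000 (HCT116) or 4000 (HEP3B) per well and left 24 h at 37° C. Compound treatment lasted 96 h. Growth was read by CyQUANT, and GI50 (50% growth inhibition) came from dose-response curves.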

[2] = In vivo pharmacokinetic (PK) studies; settings: mouse, plasma, po; mice, hydrochloric acid salt form (2HCl), 50 mg/kg
Procedure: Compound was dissolved in appropriate solution (saline or DMA and Cremaphor in saline) at 1 mg/ml for intravenous (IV) administration, or in 0.5% methyl cellulose, 0.1% Tween 80 in water at 5 mg/ml for oral administration. Mice were randomized according to body weight, grouped three per time point. Mice were administered single IV dose (10 mg/kg) via tail vein, or single oral dose (50 mg/kg) via gavage. At pre-defined time points (predose, 5 or 10, 30 min, 1, 2, 4, 8, and 24 h), one group of mice was sacrificed by overdose CO2 and blood samples were collected by cardiac puncture. The blood samples were centrifuged immediately for 10 min at 3000 rpm to separate plasma, and plasma was kept frozen at −80° C. until analysis by LC/MS/MS. Before sample analysis, the method was developed for LC/MS/MS assay. The method was validated for signal-response of the calibration standards, auto-sampler stability for ˜15 hours intra-day and inter-day calibration curve using eight calibration standards excluding the blank plasma. QC samples at three different concentrations in triplicates were prepared to determine the accuracy and precision. The extracted QC samples were compared to unextracted samples to determine the extraction efficiency of the analyte. LLOQ was determined by using triplicate samples of 1 ng/mL and 2 ng/mL to obtain accuracy and precision at the low end. Samples were analysed using the validated method. Data was analyzed by the non-compartmental model using WinNolin 4.0 software (Pharsight, Mountain View, Calif., USA). The mean values for the plasma compound concentration-time profiles were used in mouse PK study.
The PK parameter AUC0-last providing the information on the overall exposure of the drug in vivo is one of the key PK/PD parameters that helps in predicting the efficacy of an anti-cancer compound. The higher the AUC value, the better will be the in vivo efficacy of the compound at similar in vitro potency.

A2780 = test: Cell-based proliferation assay for GI50 (CyQUANT), A2780; settings: Homo sapiens; A2780, 96 h treatment; read-out: Cellular or Growth Inhibition Activity, GI50, A2780
Procedure: as §1

HCT116 = test: Cell-based proliferation assay for GI50 (CyQUANT), HCT116; settings: Homo sapiens, HCT-116; HCT116, 96 h treatment; read-out: Cellular or Growth Inhibition Activity, GI50, HCT116
Procedure: as §1

T1 sequence (Q13547 whole entry): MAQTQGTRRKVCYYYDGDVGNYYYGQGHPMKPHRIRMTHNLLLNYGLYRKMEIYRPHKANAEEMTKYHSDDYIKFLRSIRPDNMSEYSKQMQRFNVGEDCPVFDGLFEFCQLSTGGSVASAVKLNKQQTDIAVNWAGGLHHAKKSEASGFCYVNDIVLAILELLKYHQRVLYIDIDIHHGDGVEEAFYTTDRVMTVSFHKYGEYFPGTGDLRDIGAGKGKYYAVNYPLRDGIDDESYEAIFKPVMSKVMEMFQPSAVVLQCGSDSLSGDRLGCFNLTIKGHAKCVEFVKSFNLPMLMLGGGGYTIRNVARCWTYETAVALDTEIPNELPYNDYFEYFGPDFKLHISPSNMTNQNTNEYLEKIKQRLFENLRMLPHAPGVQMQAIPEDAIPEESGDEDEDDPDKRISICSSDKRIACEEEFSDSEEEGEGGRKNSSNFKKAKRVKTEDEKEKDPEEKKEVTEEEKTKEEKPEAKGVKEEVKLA

| GI50 (PC3) [nM] | pIC50 (HDAC1 enzyme) | half-life at 5 μM [1] [min] | GI50 (HEP3B) [nM] | GI50 (Colo205 cells) [nM] | AUC(0-t) [2] [ng·h/mL] | GI50 (A2780) [nM] | GI50 (HCT116) [nM] | SMILES |
| --- | --- | --- | --- | --- | --- | --- | --- | --- |
| < 500 | 7.38 | > 30 | 500 to 1000 | 500 | 1870 | < 500 | 500 to 1000 | CN(C)CC(C)(C)Cn1c(CC(C)(C)C)nc2cc(/C=C/C(=O)NO)ccc21 [Compound 1, 3-[1-(3-Dimethylamino-2,2-dimethyl-propyl)-2-(2,2-dimethyl-propyl)-1H-benzoimidazol-5-yl]-N-hydroxy-acrylamide] |
| < 500 | 7.28 | > 30 | 1000 to 5000 | 560 | 1840 | 500 to 1000 | 500 to 1000 | CCCCc1nc2cc(/C=C/C(=O)NO)ccc2n1CCN(CC)CC [Compound 8, 3-[2-Butyl-1-(2-diethylamino-ethyl)-1H-benzoimidazol-5-yl]-N-hydroxy-acrylamide] |
